#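 Results reflect a 48-hour exposure of cells in 96-well plates to compound at five concentrations. Abbreviation: GI50, concentration required for 50% inhibition of growth. The concentration for full growth arrest is given as TGI.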
# Legend:
# Assay in all cases: inhibition of tumour cell growth, NCI panel, 48 h
# NCI-H460 lung = tested on: NCI-H460 lung
# NCI-H522 lung = tested on: NCI-H522 lung
# NCI/ADR-RES ovarian = tested on: NCI/ADR-RES ovarian
# OVCAR-3 ovarian = tested on: OVCAR-3 ovarian
# OVCAR-4 ovarian = tested on: OVCAR-4 ovarian
# OVCAR-5 ovarian = tested on: OVCAR-5 ovarian
# OVCAR-8 ovarian = tested on: OVCAR-8 ovarian
# PC-3 prostate = tested on: PC-3 prostate
# RXF 393 renal = tested on: RXF 393 renal
# SF-268 CNS = tested on: SF-268 CNS
# SF-295 CNS = tested on: SF-295 CNS
# SF-539 CNS = tested on: SF-539 CNS
# SK-MEL-2 melanoma = tested on: SK-MEL-2 melanoma
# SK-MEL-28 melanoma = tested on: SK-MEL-28 melanoma
# SK-MEL-5 melanoma = tested on: SK-MEL-5 melanoma
# SK-OV-3 ovarian = tested on: SK-OV-3 ovarian
# SN12C renal = tested on: SN12C renal
# SNB-19 CNS = tested on: SNB-19 CNS
# SNB-75 CNS = tested on: SNB-75 CNS
# SR leukemia = tested on: SR leukemia
# SW-620 colon = tested on: SW-620 colon
# T-47D breast = tested on: T-47D breast
# TK-10 renal = tested on: TK-10 renal
# U251 CNS = tested on: U251 CNS
# UACC-257 melanoma = tested on: UACC-257 melanoma
# UACC-62 melanoma = tested on: UACC-62 melanoma
# UO-31 renal = tested on: UO-31 renal
smiles,measurement,setting,value
CCN1CCN(CCC(=O)Nc2cccc(-n3cc(-c4ccncc4)c(-c4ccc(Cl)c(OC)c4)n3)c2)CC1,GI50,NCI-H460 lung,361 nM
same,TGI,NCI-H460 lung,1370 nM
same,GI50,NCI-H522 lung,275 nM
same,TGI,NCI-H522 lung,1190 nM
same,GI50,NCI/ADR-RES ovarian,1270 nM
same,TGI,NCI/ADR-RES ovarian,4.29 µM
same,GI50,OVCAR-3 ovarian,352 nM
same,TGI,OVCAR-3 ovarian,1430 nM
same,GI50,OVCAR-4 ovarian,919 nM
same,TGI,OVCAR-4 ovarian,7.53 µM
same,GI50,OVCAR-5 ovarian,1420 nM
same,TGI,OVCAR-5 ovarian,4.84 µM
same,GI50,OVCAR-8 ovarian,1260 nM
same,TGI,OVCAR-8 ovarian,3.82 µM
same,GI50,PC-3 prostate,448 nM
same,TGI,PC-3 prostate,2020 nM
same,GI50,RXF 393 renal,244 nM
same,TGI,RXF 393 renal,1430 nM
same,GI50,SF-268 CNS,663 nM
same,TGI,SF-268 CNS,2430 nM
same,GI50,SF-295 CNS,360 nM
same,TGI,SF-295 CNS,1630 nM
same,GI50,SF-539 CNS,362 nM
same,TGI,SF-539 CNS,1470 nM
same,GI50,SK-MEL-2 melanoma,1110 nM
same,TGI,SK-MEL-2 melanoma,2550 nM
same,GI50,SK-MEL-28 melanoma,1390 nM
same,TGI,SK-MEL-28 melanoma,2970 nM
same,GI50,SK-MEL-5 melanoma,507 nM
same,TGI,SK-MEL-5 melanoma,1830 nM
same,GI50,SK-OV-3 ovarian,1840 nM
same,TGI,SK-OV-3 ovarian,7.67 µM
same,GI50,SN12C renal,623 nM
same,TGI,SN12C renal,2880 nM
same,GI50,SNB-19 CNS,1080 nM
same,TGI,SNB-19 CNS,5.61 µM
same,GI50,SNB-75 CNS,392 nM
same,TGI,SNB-75 CNS,6.82 µM
same,GI50,SR leukemia,433 nM
same,TGI,SR leukemia,2370 nM
same,GI50,SW-620 colon,338 nM
same,TGI,SW-620 colon,1500 nM
same,GI50,T-47D breast,841 nM
same,TGI,T-47D breast,4.7 µM
same,GI50,TK-10 renal,1750 nM
same,TGI,TK-10 renal,5 µM
same,GI50,U251 CNS,484 nM
same,TGI,U251 CNS,1760 nM
same,GI50,UACC-257 melanoma,864 nM
same,TGI,UACC-257 melanoma,2310 nM
same,GI50,UACC-62 melanoma,757 nM
same,TGI,UACC-62 melanoma,2340 nM
same,GI50,UO-31 renal,922 nM
same,TGI,UO-31 renal,2530 nM
